Assay results from US20060025394A1, “Estradiol-related compounds and methods of use as anti-tumor agents” (priority 2003, published 2006).

Columns and labels:
LNCaP = assay: MTS cell viability assay in LNCaP; type: cell-based
Procedure: DU145, LNCaP, PC3, and MCF-7 cells were obtained from the American Type Culture Collection (Manassas, Va.). DU145, PC3, and MCF-7 cells were maintained in Dulbecco's modified Eagle's medium/F-12 supplemented with 5% heat inactivated Fetal Calf Serum and Penicillin/Streptomycin (Invitrogen Life Technologies, Carlsbad, Calif.). LNCaP cells were maintained in RPMI 1640 medium supplemented in the same fashion. Cells were cultured in 75 cm^2 flasks (Falcon, BD Biosciences, Bedford, Mass.) at 37° C. and 5% CO2. […]
Cell viability assays were carried out with five logs of concentration between 0.1 nM and […] for APVE2, including controls in three prostate cancer cell lines (DU145, LNCaP, and PC3, and in a breast cancer cell line (MCF-7). Upon completing five days of treatment, the medium in each well was exchanged for 400 μL of an MTS solution (3-(4,5-dimethylthiazol-2-yl)-5-(3-carboxymethoxyphenyl)-2-(4-sulfophenyl)-2H-tetrazolium, inner salt; O'Toole SA, 2003, Cancer Detect Prev., 2003;27(1):47-54) spiked into media as per the manufacture's instructions (Promega, Madison, Wis.) and incubated for 2 hours at 37° C. before reading the absorbance on the μQuant UV/VIS plate reader, in conjunction with KCjunior Software (Bio-Tek Instruments, Winooski, Vt.) set at 490 nm. […] EC50 values were calculated with GraphPad Prism software (GraphPad Software Inc., San Diego, Calif.).

DU145 cells = assay: Flow cytometry cell cycle analysis; type: cell-based; details: 16 nM
Procedure: The cells were trypsinized for five minutes, scraped, washed in serum containing media, centrifuged at 300 rpm for 10 minutes, and fixed in ice-cold 70% ethanol for 24 hours at −20° C. The cells were again pelleted and resuspended in buffer containing nine parts 0.05M Na2HPO4 and one part 25 mM citric acid with 0.1% Triton X-100 (pH 7.8) for 2 hours. Cells were pelleted, resuspended in a buffer ([…], 0.1 N NaCl, 2 mM MgCl2, and 0.1% Triton X-100) containing 20 μg PI and 50 μg/ml RNAse (pH 6.8), and incubated in the dark at room temperature for 30 minutes. Cell cycle distribution and DNA content analysis were assayed according to standard methods with a FACS sorter, FACScan™ flow cytometer (Becton Dickinson, Mountain View, Calif.), and analyzed by the Cell Cycle Multi-Cycle system (Phoenix Flow System, San Diego, Calif.). Approximately 15,000 single events were collected, and cell-cycle distribution was determined using Modfit LT version 2 software (Verity House, Inc., Topsham, Me.). All analyses were carried out in quadruplicate.

NCR nude mice = details: 5 to 40 mg/kg/day bolus IM injection, 40-day period
Procedure: Doses included 5 to 40 mg/kg/day bolus IM injection. Toxicity effects were gauged based on changes in animal weight and gross analysis of specific organs including liver, lung, prostate, brain, spleen, heart, and kidney, collected, and fixed in paraffin sections.

ER-β = molecular target: T1, ER-β (Homo sapiens, UniProt Q92731); assay: Estrogen receptor relative binding affinity assay, fluorescence polarization, ER-β
T1 construct: purchased Pan Vera, Madison, Wis
T1 sequence (Q92731 whole entry): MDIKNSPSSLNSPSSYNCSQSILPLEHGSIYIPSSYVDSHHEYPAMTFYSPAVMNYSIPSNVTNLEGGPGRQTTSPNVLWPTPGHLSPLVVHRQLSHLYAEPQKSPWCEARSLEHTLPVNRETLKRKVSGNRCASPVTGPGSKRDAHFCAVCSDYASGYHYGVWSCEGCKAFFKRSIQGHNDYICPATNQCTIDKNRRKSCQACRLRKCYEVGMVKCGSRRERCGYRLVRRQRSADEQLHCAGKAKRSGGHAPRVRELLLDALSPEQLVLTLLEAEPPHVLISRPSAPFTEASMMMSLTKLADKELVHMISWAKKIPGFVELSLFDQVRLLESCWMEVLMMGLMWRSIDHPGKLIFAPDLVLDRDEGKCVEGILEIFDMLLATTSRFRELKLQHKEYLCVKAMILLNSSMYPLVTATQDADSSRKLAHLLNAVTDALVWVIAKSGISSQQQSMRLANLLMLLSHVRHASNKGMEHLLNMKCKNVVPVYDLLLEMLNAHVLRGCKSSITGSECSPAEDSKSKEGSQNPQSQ
Procedure: All assays were carried out as per the manufacture's instructions with the following modifications.

MCF-7 = assay: Cytotoxicity testing (Example 7), MTS, MCF-7; type: cell-based; details: Table 3, five days, 1 mM of each compound, defined media
Procedure: Cytotoxicity Studies were done in DU-145 and MCF-7 Cells. […] We set out to test the efficacy of these compounds based on known affinities for ER-α previously reported. Cells were treated for five days with 1 mM of each compound in a defined media. Cell number was estimated by the MTS method. Similar studies were carried out in the MCF-7 cell line known to express both ER-α and -β, and display proliferative properties in the presence of classic estrogens.

DU145 = assay: MTS cell viability assay in DU145; type: cell-based
Procedure: DU145, LNCaP, PC3, and MCF-7 cells were obtained from the American Type Culture Collection (Manassas, Va.). DU145, PC3, and MCF-7 cells were maintained in Dulbecco's modified Eagle's medium/F-12 supplemented with 5% heat inactivated Fetal Calf Serum and Penicillin/Streptomycin (Invitrogen Life Technologies, Carlsbad, Calif.). LNCaP cells were maintained in RPMI 1640 medium supplemented in the same fashion. Cells were cultured in 75 cm^2 flasks (Falcon, BD Biosciences, Bedford, Mass.) at 37° C. and 5% CO2. For the MTS assay (Example 3), five thousand cells were plated in each well of a 24 well plate (Falcon), were allowed to attach for a 48-hour period in the media described, and changed to a defined medium, (DMEM/F-12 or RPMI1640) supplemented with insulin (BD Biosciences). A 1000× solution of the compound of interest solubilized in DMSO (Sigma, Saint Louis, Mo.) was diluted in the defined media just prior to starting each experiment, and media was refreshed every 48 to 72 hours throughout the experiments.
. Upon completing five days of treatment, the medium in each well was exchanged for 400 μL of an MTS solution (3-(4,5-dimethylthiazol-2-yl)-5-(3-carboxymethoxyphenyl)-2-(4-sulfophenyl)-2H-tetrazolium, inner salt; O'Toole SA, 2003, Cancer Detect Prev., 2003;27(1):47-54) spiked into media as per the manufacture's instructions (Promega, Madison, Wis.) and incubated for 2 hours at 37° C. before reading the absorbance on the μQuant UV/VIS plate reader, in conjunction with KCjunior Software (Bio-Tek Instruments, Winooski, Vt.) set at 490 nm. All experiments were carried out in quadruplicate, control wells were treated with the carrier DMSO. E2, which is estradiol-17β (Steraloids®, Newport, R.I.) and resveratrol (Sigma) were used as controls. […]

C[C@]12CC[C@@H]3c4ccc(O)cc4CC[C@H]3[C@@H]1CC[C@@]2(O)/C=C\c1ccc(N)cc1 [APVE2, 17α-20Z-21-[(4-amino)phenyl]-19-norpregna-1,3,5(10),20-tetraene-3,17β-diol]
decrease in cell number (LNCaP; 5 days of treatment at 1 μM): 69±2.3%
EC50 (LNCaP; Homo sapiens, 120 h, five day treatment, read-out: EC50 (cell death, MTS)): 1.4 nM
increase in G2/M accumulation (DU145 cells): over 4 fold
G1/G0 phase, compared to non-treated controls (DU145 cells; day 2-3): 135%
G2/M, compared to non-treated controls (DU145 cells; day 3): no change
S phase, decrease to, compared to non-treated controls (DU145 cells; day 3): 32%
G1/G0, decrease to, over non-treated controls (DU145 cells; day 4): 48%
S phase, over non-treated controls (DU145 cells; day 4): 73%
G2/M arrest, over non-treated controls (DU145 cells; day 4-5): 420%
loss of G1 (DU145 cells; four to five days): over 48%
loss in S phase (DU145 cells; second and third day): up to 68%
general toxicity (animal weight, gross analysis of organs) (NCR nude mice): No apparent detrimental effects
preference for ER-β over ER-α (ER-β): 7 fold
EC50 (ER-β; fluorescence polarization, 25° C., 2 hours): 250 nM
ER-β % RBA (ER-β; ratio of EC50 values as compared to E2): 6.2%
ER-α/ER-β (ER-β; ratio of RBAs): 0.14
MCF-7 % Cell# (MCF-7): 25%
decrease in cell number (DU145; DU145, 5 days of treatment at 1 μM): 92±0.9%
EC50 (DU145; Homo sapiens, DU-145, 120 h, read-out: EC50 (cell death, MTS)): 16 nM
